Test results published in the OPERA property sets (Mansouri et al. 2018).

Compound | logP
CNC(=C[N+](=O)[O-])NCCSCc1ccc(CN(C)C)o1 | 0.27
CC1(C)C(C=C2CCSC2=O)C1C(=O)OCc1ccccc1 (centres undefined) | 4.02
CCOC(=O)C1=C(C)OC(=Cc2ccc(OC)cc2)C1=O | 2.96
CC1=C(C(=O)Nc2ccccc2)S(=O)CCO1 (centres undefined) | 0.64
CNC(=O)COc1ccc(OCC(O)CNC(C)C)cc1 (centres undefined) | 0.56
CCNCC(=O)Nc1c(C)cccc1C | 1.32
CCCCC(CCC)C(=O)O (centres undefined) | 3.01
Nc1nnc(CCc2ccccc2)o1 | 1.19
CC(C)c1nnc(SCC(=O)c2ccccc2)n(N)c1=O | 2.07
Clc1cccc(Br)c1N=C1NCCN1 | 1.73
CC1=CC(=O)C(C(C)C)=CC1=O | 2.2
CCNC(C)Cc1cccc(C(F)(F)F)c1 (centres undefined) | 3.36
Cc1coc2ccc3ccc(=O)oc3c12 | 2.38
FC(F)(c1ccccc1)C(F)(F)c1ccccc1 | 5
COC(=O)C1=C(C)NC(C)=C(C(=O)OCCN(C)Cc2ccccc2)C1c1cccc([N+](=O)[O-])c1 (centres undefined) | 3.82
CCC(C(=O)OCc1ccc(C)cc1)C(COC(=O)C(C)(C)C)Cc1cncn1C (centres undefined) | 4.55
CCNc1ccc(C(=O)OCCN(C)C)cc1 | 2.62
C#CC1(O)C(F)CC2C3CCc4cc(O)ccc4C3CCC21C (centres undefined) | 3.3
O=C(O)c1ccc(Cl)cc1Nc1cccc(Cl)c1 | 5
Cn1c([N+](=O)[O-])cnc1/C=C/c1ccnc(N)n1 | 0.85
CC1OC(OC2CCC3(C=O)C4CCC5(C)C(C6=CC(=O)OC6)CCC5(O)C4CCC3(O)C2)C(O)C(O)C1O (centres undefined) | -0.48
C#CC1(O)CCC2C3CCc4cc(O)ccc4C3C(CC)CC21C (centres undefined) | 4.28
ClC1=C(Cl)C2(Cl)C3C4OC4C(Cl)C3C1(Cl)C2(Cl)Cl (centres undefined) | 4.98

Compound | logP
C[C@@H]1CC2=CC(=O)CC[C@@H]2[C@H]2CC[C@@]3(C)[C@@H](CC[C@]3(C)O)[C@@H]21 | 3.19
Nc1ccn(C2OC(CCl)C(O)C2O)c(=O)n1 (centres undefined) | -1.05
O=C(Cn1ccnc1[N+](=O)[O-])NCc1ccccc1 | 0.91
O=C(O)c1ccc(Cl)cc1Nc1cccc(Br)c1 | 5.16
CCCCNC(=O)c1cc(Br)cc(C)c1O | 4.21
Cc1cc(N=O)ccc1O | 1.71
Nc1ncnc2c1ncn2C1C=CC(CO)O1 (centres undefined) | -0.5
CC(=O)c1ccc(S(=O)(=O)NC(=O)NC2CCCCC2)cc1 | 2.44
CCC(=O)OCOC(=O)c1cc(S(N)(=O)=O)c(Cl)cc1NCc1ccco1 | 2.9
CCNCc1ccccc1 | 1.82
OC(Cn1ccnc1)(c1ccc(F)cc1)c1ccc(-c2ccccc2)cc1 (centres undefined) | 4.23
CCCOc1cc(Cc2cnc(N)nc2N)ccc1OC | 1.88
COC(=O)C1C(C=C2CCSC2=O)C1(C)C (centres undefined) | 2.33
CCCOc1cc(Br)c(Cc2cnc(N)nc2N)cc1OC | 2.84
CCCNCC(O)COc1ccc(-c2ncc(-c3cccs3)[nH]2)cc1 (centres undefined) | 2.84
CCn1c(=O)[nH]c(=O)c2[nH]cnc21 | -0.11
OC1CCCc2ccccc21 (centres undefined) | 1.98
O=[N+]([O-])c1cnc(C=Cc2ccc3c(c2)OCO3)n1CCO | 2.03
CCC(C)CC | 3.6
CCN1CC(C(O)C(CC2CCCCC2)NC(=O)C(Cc2cnc[nH]2)NC(=O)C(CC(=O)N(C)CCOCOC)Cc2ccccc2)OC1=O (centres undefined) | 2.49
Fc1ccc(Cl)c(N=C2NCCN2)c1 | 1.52
COC(=O)/C=C/Oc1ccccc1 | 2.68
O=C(c1ccc(Cl)cc1Cl)c1ccc2n1CCC2C(=O)O (centres undefined) | 3.56

Compound | logP
CCCCCCCCCCCCCc1cccc(O)c1 | 8.84
CCCNC(=O)COc1ccc(OCCNCC(O)COc2ccccc2)cc1 (centres undefined) | 2.4
CC(C)(C)c1cccc(O)c1 | 3.3
CC1(C)CC(N)CC(C)(C)N1O | 0.56
Cc1cc(C)cc(NS(=O)(=O)c2ccc(N)cc2)c1 | 2.52
O=C(CN1CCCCC1)NCc1ccccc1 | 2.27
O=C(Cn1ccnc1[N+](=O)[O-])NC(CO)(CO)CO | -1.77
Cc1cccc(C)c1NC(=O)CCN | 0.62
O=[N+]([O-])c1cc(F)ccc1F | 1.86
C=CCC(NC(=O)C(Cc1ccccc1)NS(=O)(=O)N1CCOCC1)C(=O)NC(CC1CCCCC1)C(=O)C(F)(F)C(=O)NCCN1CCOCC1 (centres undefined) | 3.39
CCCCCCCCOC(=O)c1cc(=O)[nH]c(=O)[nH]1 | 2.6
O=C(O)Cc1ccc(C2CCCC2)cc1 | 3.44
CC(C)(C)c1ccc(C2C(=O)c3ccccc3C2=O)cc1 | 4.88
CCC(=O)OC(C(=O)NC12CC3CC(CC(C3)C1)C2)c1ccccc1 (centres undefined) | 3.72
Cc1cccc(C)c1NC(=O)C(C)N(C)C (centres undefined) | 1.53
OC(CCN1CCCCC1)(c1ccccc1)C1CC2C=CC1C2 (centres undefined) | 4.25
COc1cc(Cc2cnc(N)nc2N)c(I)c(OC)c1OC | 1.79
CC(C)NC(=O)COc1ccc(OCCNCC(O)COc2ccccc2)cc1 (centres undefined) | 2.4
Oc1ccc2c(c1)CCCC2 | 2.9
O=Nc1ccc(O)c(=O)cc1 | 0.83
CCN1CC(C(O)C(CC2CCCCC2)NC(=O)C(Cc2cnc[nH]2)NC(=O)C(CC(=O)N(C)CCOC)Cc2ccccc2)OC1=O (centres undefined) | 2.45
CC(=O)NCc1cccc(OCC(O)CNC(C)C)c1 (centres undefined) | 0.34
COc1cccc2c1C(=O)c1c(O)c3c(c(O)c1C2=O)CC(O)(C(=O)CO)CC3OC1CC(N2CCOCC2)C(O)C(C)O1 (centres undefined) | 1.73

Compound | logP
CCN(CC)CCNC(=O)c1ccc(N)cc1OC | 1.4
CC1CCCc2nccc(=O)n21 (centres undefined) | 0.3
CC(=O)Nc1c(I)c(C(=O)N(C)CC(O)CO)c(I)c(C(=O)N(C)CC(O)CO)c1I (centres undefined) | -2.71
CCN1CC(C(O)C(CC2CCCCC2)NC(=O)C(Cc2cnc[nH]2)NC(=O)C(Cc2ccc(OC)cc2)NC(=O)N2CCOCC2)OC1=O (centres undefined) | 2.11
COC1CC2(C)C(O)C(F)CC2C2CCc3cc(O)ccc3C12 (centres undefined) | 2.35
CC(C)c1cccc(S(N)(=O)=O)c1 | 1.81
CC(C)NCC(O)COc1cccc(CC(N)=O)c1 (centres undefined) | 0.22
CC(C)c1cccc(C(C)C)c1NC1=NCCN1 | 3.04
c1ccc(C2CCNCC2)cc1 | 2.39
CC(=O)OCC1OC(n2ccc(N)nc2=O)C(OC(C)=O)C1OC(C)=O (centres undefined) | -0.8
Cc1cnc(NS(=O)(=O)c2ccc(N)cc2)nc1 | 0.34
COc1ccc(C(=O)OCC2OC(n3cnc4c(OC)ncnc43)C2OC(=O)c2ccc(OC)cc2)cc1 (centres undefined) | 3.65
CCOC(=O)Cn1nc2ccccc2n1 | 1.85
Nc1nc2c(ncn2COC(CO)CO)c(=O)[nH]1 | -1.66
O=C1NC(=O)c2cc(-c3ccccc3)ccc21 | 2.97
Fc1ccc(F)c(F)c1 | 2.52
COC(=O)C(C(=O)OC)=C1SCCS1 | 1.51
CCOc1cc(Cc2cnc(N)nc2N)ccc1OC | 1.2
O=C1NC(=O)C(c2ccccc2)C(=O)N1 | -0.17
c1ccc(-c2ncc3ccccc3n2)cc1 | 3.42
N#CSO | 0.32
NS(=O)(=O)c1nc2c(Cl)cc(Cl)cc2s1 | 2.6
CCN(CC)CCOC(=O)/C=C/c1ccccc1 | 3.61

Compound | logP
CCC1OC(=O)C(C)C(OC2CC(C)(OC)C(OC=O)C(C)O2)C(C)C(OC2OC(C)CC(N(C)C)C2O)C(C)(O)CC(C)C(=O)C(C)C(O)C1(C)O (centres undefined) | 2.64
Cc1cccc(C)c1N(CCCN1CCCCC1)C(=O)Cc1ccccc1 | 5.28
Cc1cccc(C2C(=O)c3ccccc3C2=O)c1 | 3.46
CCC(C(=O)OCc1ccc(Cl)cc1)C(COC(=O)c1ccccc1)Cc1cncn1C (centres undefined) | 4.9
O=C(O)C=Cc1ccc2c(c1)OCO2 | 2.59
COc1c(OC)c(OC(C)=O)c2cc(NC(C)=O)ccc2c1OC(C)=O | 2
Clc1ccc(Cl)c(-c2ccccc2)c1 | 5.1
CN(C)c1ccc(C(O)(Cn2ccnc2)c2ccc(-c3ccncc3)cc2)cc1 (centres undefined) | 3.29
CCCCCCCC1CC(C(=O)Nc2c(C(C)C)cccc2C(C)C)C(=O)O1 (centres undefined) | 4.72
O=C(CCN1CCC(O)(c2ccc(Cl)cc2)CC1)c1ccc(F)cc1 | 3.24
CC(C)NCC1CCc2cc(CO)c([N+](=O)[O-])cc2N1 (centres undefined) | 2.24
O=C(O)CCC(=O)c1ccccc1 | 1.3
O=C(COc1ccc(OCCNCC(O)COc2ccccc2)cc1)N1CCc2ccccc2C1 (centres undefined) | 3.6
CCC(CC)(C(=O)NC(N)=O)C(=O)OCc1ccccc1 | 2.74
CCOc1ccc(NC(=O)CN2CCCCC2)cc1 | 2.82
Cc1cc(C)cc(C2C(=O)c3ccccc3C2=O)c1 | 4.02
c1ccc2c(c1)Cc1c-2ccc2ccccc12 | 5.4
CC1c2nc3ccccc3c(=O)n2CN1Cc1ccccc1 (centres undefined) | 1.72
CCOc1cccc(NC(=O)CN2CCCCC2)c1 | 3.17
NNC(=O)c1ccnc(I)c1 | 0.52
CCN(CC)CC(=O)NCc1ccccc1 | 2.14
CNC1CC2CC1c1ccccc12 (centres undefined) | 2.32
CC1OC(OC2C(O)CC(OC3C(O)CC(OC4CCC5(C)C(CCC6C5CC(O)C5(C)C(C7COC(=O)C7)CCC65O)C4)OC3C)OC2C)CC(O)C1O (centres undefined) | 1.36

Compound | logP
CCCOC(=O)c1ccccc1Cl | 3.45
CC(N)CC1CCCCCCC1 (centres undefined) | 3.7
Nc1ncc(Cc2cccc(Cl)c2)c(N)n1 | 2.29
Cc1[nH]c2ccccc2c1C | 3.05
OC1(c2ccc(Cl)cc2)CCCCCC1n1cncn1 (centres undefined) | 3.54
CCCCCC(CCC)C(=O)O (centres undefined) | 3.2
Cc1ccc(N(CCO)CCO)cc1 | 1.09
CC1=C(C(=O)Nc2ccccc2-c2ccccc2)SCCO1 | 2.54
O=C(COc1ccc(OCCNCC(O)COc2ccccc2)cc1)N1CCCCC1 (centres undefined) | 2.6
NC1CC1c1ccccc1 (centres undefined) | 1.58
C#C[C@]1(O)CC[C@H]2[C@@H]3CCc4cc(O)ccc4[C@H]3[C@@H](OC)C[C@@]21C | 3.01
COc1ccc(COc2ccccc2C(N)=O)cc1 | 1.63
CC12CCC(=O)C=C1CCC1C3CCC4(CCC(=O)O4)C3(C)CC(O)C12F (centres undefined) | 2.4
CCCCCCC(C)(C)c1ccc(C2CC(O)CCC2C)c(O)c1 (centres undefined) | 7.49
C#CC1(O)C(F)CC2C3CCc4cc(O)ccc4C3C(OC)CC21C (centres undefined) | 2.87
CC(C)c1ccc(S(N)(=O)=O)cc1 | 1.84
NC(=O)c1ccccc1OCc1ccc([N+](=O)[O-])cc1 | 1.73
CSC(C)=NOC(=O)N(C)SN(C)C(C)=O | 1.3
Cc1cccc(N=C2NCCN2)c1Cl | 1.83
